Measured values: PMC12396409, “Screening and hit evaluation of a microbial metabolite library against the pathogenic Plasmodium falciparum and Toxoplasma gondii parasites” (International Journal for Parasitology: Drugs and Drug …, 2025)
Like-named read-outs stand apart in the source and are kept apart here. Where a SMILES comes first, the peptide text is derived from it. [ ]: non-standard residue; d: D form. Hiv = CC(C)[C@H](O)C(=O)O

Assays:
[1] = test system: P. falciparum 3D7 parasites; assay: P. falciparum growth inhibition assay, 2-cycle (120 h treatment), delayed-death screen and dose-response; format: cell-based, Plasmodium falciparum; conditions: for activity at 2 µg/mL: Plasmodium falciparum
[2] = test system: P. falciparum 3D7 parasites; assay: P. falciparum growth inhibition assay, 1-cycle (72 h treatment), SYBR DNA staining (library screen at 2 μg/mL and dose-response); format: cell-based, Plasmodium falciparum; conditions: for activity at 2 µg/mL: Plasmodium falciparum
[3] = test system: T. gondii RH strain (RH-Tub-eYFP) tachyzoites; assay: microbe, parasite or virus in culture; format: cell-based, Toxoplasma gondii; conditions: for percent parasite growth at 2 µg/mL: Toxoplasma gondii
[4] = P. falciparum 3D7, 120 h, parasite screen at 2 μg/mL, % growth, replicate 1
[5] = P. falciparum 3D7, 120 h, parasite screen at 2 μg/mL, % growth, replicate 2
[6] = P. falciparum 3D7, 72 h, parasite screen at 2 μg/mL, % growth, replicate 1
[7] = P. falciparum 3D7, 72 h, parasite screen at 2 μg/mL, % growth, replicate 2
[8] = T. gondii, 72 h, parasite screen at 2 μg/mL, % growth, replicate 1
[9] = T. gondii, 72 h, parasite screen at 2 μg/mL, % growth, replicate 2
[10] = 72 h, library screen at 2 μg/mL, 72 h, % growth, replicate 1, read-out: Tg_72h_%Growth_Rep1
[11] = 72 h, library screen at 2 μg/mL, 72 h, % growth, replicate 2, read-out: Tg_72h_%Growth_Rep2
[12] = P. falciparum, 120 h, screen at 2 μg/mL, replicate 1
[13] = P. falciparum, 120 h, screen at 2 μg/mL, replicate 2
[14] = P. falciparum, 72 h, screen at 2 μg/mL, replicate 1
[15] = P. falciparum, 72 h, screen at 2 μg/mL, replicate 2
[16] = T. gondii, 72 h, screen at 2 μg/mL, replicate 1
[17] = T. gondii, 72 h, screen at 2 μg/mL, replicate 2
[18] = library screen at 2 μg/mL, 120 h, % growth, replicate 1
[19] = library screen at 2 μg/mL, 120 h, % growth, replicate 2
[20] = library screen at 2 μg/mL, 72 h, % growth, replicate 1
[21] = library screen at 2 μg/mL, 72 h, % growth, replicate 2
[22] = P. falciparum 3D7, 120 h, library screen at 2 μg/mL, % growth, replicate 1
[23] = P. falciparum 3D7, 120 h, library screen at 2 μg/mL, % growth, replicate 2
[24] = P. falciparum 3D7, 72 h, library screen at 2 μg/mL, % growth, replicate 1
[25] = P. falciparum 3D7, 72 h, library screen at 2 μg/mL, % growth, replicate 2
[26] = T. gondii RH, 72 h, library screen at 2 μg/mL, % growth, replicate 1
[27] = T. gondii RH, 72 h, library screen at 2 μg/mL, % growth, replicate 2
[28] = P. falciparum, 120 h, parasite screen 2 μg/mL, % growth, replicate 1
[29] = P. falciparum, 120 h, parasite screen 2 μg/mL, % growth, replicate 2
[30] = P. falciparum, 72 h, parasite screen 2 μg/mL, % growth, replicate 1
[31] = P. falciparum, 72 h, parasite screen 2 μg/mL, % growth, replicate 2
[32] = T. gondii, 72 h, parasite screen 2 μg/mL, % growth, replicate 1
[33] = T. gondii, 72 h, parasite screen 2 μg/mL, % growth, replicate 2

COC1=CC(=O)c2c(n(C)c3occc3c2=O)C1=O [BIA-M1955]
Pf_120h_%Growth_Rep1 [1, 4]: 53.96% | Pf_120h_%Growth_Rep2 [1, 5]: 26.88% | Pf_72h_%Growth_Rep1 [2, 6]: 39.08% | Pf_72h_%Growth_Rep2 [2, 7]: 29.78% | Tg_72h_%Growth_Rep1 [3, 8]: 248.99% | Tg_72h_%Growth_Rep2 [3, 9]: 112.97%

Cc1cc(O)c(C=O)c2c1C(=O)Oc1c(COC(=O)/C=C/C(=O)O)c(O)c(C(=O)O)c(C)c1O2 [Fumarprotocetraric acid]
activity at 2 µg/mL ([1]; 3D7, library screen at 2 μg/mL, 120 h, % growth, replicate 1, read-out: Pf_120h_%Growth_Rep1): 102% | activity at 2 µg/mL ([1]; 3D7, library screen at 2 μg/mL, 120 h, % growth, replicate 2, read-out: Pf_120h_%Growth_Rep2): 100% | activity at 2 µg/mL ([2]; 3D7, library screen at 2 μg/mL, 72 h, % growth, replicate 1, read-out: Pf_72h_%Growth_Rep1): 84.6% | activity at 2 µg/mL ([2]; 3D7, library screen at 2 μg/mL, 72 h, % growth, replicate 2, read-out: Pf_72h_%Growth_Rep2): 90.2% | percent parasite growth at 2 µg/mL [3, 10]: 126% | percent parasite growth at 2 µg/mL [3, 11]: 103%

CC(C)=CCCC(C)C1CCC2(C)CC3C(C(=O)CC3(C)O)C(C=O)=CCC12 (stereo not drawn) [BIA-O1199]
Pf_120h_%Growth_Rep1 [1, 4]: 3.94% | Pf_120h_%Growth_Rep2 [1, 5]: 138.56% | Pf_72h_%Growth_Rep1 [2, 6]: -0.50% | Pf_72h_%Growth_Rep2 [2, 7]: -3.29% | Tg_72h_%Growth_Rep1 [3, 8]: 7.63% | Tg_72h_%Growth_Rep2 [3, 9]: 89.80%

O=C1N[C@@H](C[C@@]2(O)c3ccccc3N3C(=O)C[C@@H](c4ccccc4)N[C@H]32)C(=O)N[C@H]1Cc1ccccc1 [Citreoindole]
2) Growth (%) at 120 h ([1]; P. falciparum, 2 μg/mL, 120 h): 9.52% | Pf_120h_%Growth_Rep1 [1, 12]: 10.68% | Pf_120h_%Growth_Rep2 [1, 13]: 8.36% | 3) Fold change (72 h/120 h) ([1]; P. falciparum, growth at 72 h / growth at 120 h, 2 μg/mL): 2.9 | 1) Growth (%) at 72 h ([2]; P. falciparum, 2 μg/mL, 72 h): 27.30% | Pf_72h_%Growth_Rep1 [2, 14]: 25.03% | Pf_72h_%Growth_Rep2 [2, 15]: 29.57% | Tg_72h_%Growth_Rep1 [3, 16]: 97.80% | Tg_72h_%Growth_Rep2 [3, 17]: 86.03%

CCCCC[C@@H](O)[C@H]1C(=O)O[C@H](C)[C@@H](O)/C=C/C=C/C=C/C=C/C=C(\C)[C@@H](O)C[C@H](O)C[C@H](O)C[C@H](O)C[C@H](O)C[C@H](O)C[C@@H]1O [Filipin III]
activity at 2 µg/mL ([1]; 3D7, 120 h, library screen at 2 μg/mL, 120 h, % growth, replicate 1, read-out: Pf_120h_%Growth_Rep1): 97.4% | activity at 2 µg/mL ([1]; 3D7, 120 h, library screen at 2 μg/mL, 120 h, % growth, replicate 2, read-out: Pf_120h_%Growth_Rep2): 99.7% | activity at 2 µg/mL ([2]; 3D7, 72 h, library screen at 2 μg/mL, 72 h, % growth, replicate 1, read-out: Pf_72h_%Growth_Rep1): 83.6% | activity at 2 µg/mL ([2]; 3D7, 72 h, library screen at 2 μg/mL, 72 h, % growth, replicate 2, read-out: Pf_72h_%Growth_Rep2): 89.2% | percent parasite growth at 2 µg/mL [3, 10]: 120% | percent parasite growth at 2 µg/mL [3, 11]: 104%

COC1=C(N)C(=O)c2nc(-c3nc(C(=O)O)c(C)c(-c4cccc(OC)c4O)c3N)ccc2C1=O [Desmethoxystreptonigrin, 10'-]
Pf_120h_%Growth_Rep1 [1, 18]: 0.15% | Pf_120h_%Growth_Rep2 [1, 19]: 8.14% | Pf_72h_%Growth_Rep1 [2, 20]: 2.87% | Pf_72h_%Growth_Rep2 [2, 21]: 4.81% | Tg_72h_%Growth_Rep1 [3, 20]: 4.18% | Tg_72h_%Growth_Rep2 [3, 21]: 4.20%

C[C@@H]1CCC[C@@H](O)CCC/C=C/c2cc(O)cc(O)c2C(=O)O1 [Zearalenol, alpha-]
Pf_120h_%Growth_Rep1 [1, 12]: 153.36% | Pf_120h_%Growth_Rep2 [1, 13]: 83.41% | Pf_72h_%Growth_Rep1 [2, 14]: 64.20% | Pf_72h_%Growth_Rep2 [2, 15]: 80.17% | Tg_72h_%Growth_Rep1 [3, 16]: 85.29% | Tg_72h_%Growth_Rep2 [3, 17]: 104.82%

CCC[C@@H]1C[C@@H](C(=O)N[C@@H]([C@H]2O[C@H](SC)[C@H](OP(=O)(O)O)[C@@H](O)[C@H]2O)[C@H](C)Cl)N(C)C1 [Clindamycin 2-phosphate, reference compound]
2) Growth (%) at 120 h [1]: 9.80% | 3) Fold change (72 h/120 h) [1]: 6.9 | Pf_120h_%Growth_Rep1 [1]: 15.54% | Pf_120h_%Growth_Rep2 [1]: 4.05% | 1) Growth (%) at 72 h [2]: 67.91% | Pf_72h_%Growth_Rep1 [2]: 73.78% | Pf_72h_%Growth_Rep2 [2]: 62.04% | Tg_72h_%Growth_Rep1 [3]: 25.11% | Tg_72h_%Growth_Rep2 [3]: 20.67%

O=c1cc(CO)occ1O [BIA-K1696]
Pf_120h_%Growth_Rep1 [1, 22]: 76.01% | Pf_120h_%Growth_Rep2 [1, 23]: 110.07% | Pf_72h_%Growth_Rep1 [2, 24]: 83.60% | Pf_72h_%Growth_Rep2 [2, 25]: 96.29% | Tg_72h_%Growth_Rep1 [3, 26]: 111.73% | Tg_72h_%Growth_Rep2 [3, 27]: 90.68%

CC(=O)c1c(O)cc(O)cc1O [BIA-M1378]
Pf_120h_%Growth_Rep1 [1, 4]: 82.35% | Pf_120h_%Growth_Rep2 [1, 5]: 134.53% | Pf_72h_%Growth_Rep1 [2, 6]: 82.52% | Pf_72h_%Growth_Rep2 [2, 7]: 84.34% | Tg_72h_%Growth_Rep1 [3, 8]: 125.07% | Tg_72h_%Growth_Rep2 [3, 9]: 89.41%

CC(C)C[C@@H]1NC(=O)[C@H](C(C)C)NC(=O)[C@H](C(C)C)OC(=O)[C@@H](CC(C)C)NC(=O)[C@@H](C(C)C)NC(=O)[C@H](C(C)C)OC1=O [Sporidesmolide III] (cyclo([Hiv]VL[Hiv][dV][dL]))
Pf_120h_%Growth_Rep1 [1, 28]: 153.85% | Pf_120h_%Growth_Rep2 [1, 29]: 76.17% | Pf_72h_%Growth_Rep1 [2, 30]: 74.67% | Pf_72h_%Growth_Rep2 [2, 31]: 81.35% | Tg_72h_%Growth_Rep1 [3, 32]: 94.68% | Tg_72h_%Growth_Rep2 [3, 33]: 93.28%

CC1(C)OC2CC(=O)OCC23C1CC(=O)C1(C)C3CCC2(C)C(c3ccoc3)OC(=O)C3OC321 (stereo not drawn) [BIA-L1755]
Pf_120h_%Growth_Rep1 [1, 22]: 93.20% | Pf_120h_%Growth_Rep2 [1, 23]: 110.15% | Pf_72h_%Growth_Rep1 [2, 24]: 83.85% | Pf_72h_%Growth_Rep2 [2, 25]: 113.59% | Tg_72h_%Growth_Rep1 [3, 26]: 135.94% | Tg_72h_%Growth_Rep2 [3, 27]: 85.64%

CC1=CCCC(C)C(O)C(C)C(O)CCC=CC(C)C(O)C=CC(C)C(O)C(C)=CC(O[C@H]2O[C@H](CO)[C@@H](O)[C@H](O)[C@@H]2O)C(O)CC(O)CC(O)CC(O)C(C)C(O)C(C)C(O)CC(O)CC(O)C=CCC(C(C)C(O)CCCN)OC1=O (stereo partly drawn) [Desertomycin A]
Pf_120h_%Growth_Rep1 [1, 18]: 93.27% | Pf_120h_%Growth_Rep2 [1, 19]: 101.55% | Pf_72h_%Growth_Rep1 [2, 20]: 84.25% | Pf_72h_%Growth_Rep2 [2, 21]: 90.28% | Tg_72h_%Growth_Rep1 [3, 20]: 97.84% | Tg_72h_%Growth_Rep2 [3, 21]: 106.51%

Enniatin A
Pf_120h_%Growth_Rep1 [1, 18]: 12.21% | Pf_120h_%Growth_Rep2 [1, 19]: 16.45% | Pf_72h_%Growth_Rep1 [2, 20]: 2.40% | Pf_72h_%Growth_Rep2 [2, 21]: -1.22% | Tg_72h_%Growth_Rep1 [3, 20]: 2.24% | Tg_72h_%Growth_Rep2 [3, 21]: 14.07%

CC(C)C[C@@H]1NC(=O)[C@H](Cc2c[nH]c3ccccc23)NC1=O [Cyclo(L-Leu-L-Trp)]
Pf_120h_%Growth_Rep1 [1, 12]: 80.44% | Pf_120h_%Growth_Rep2 [1, 13]: 87.76% | Pf_72h_%Growth_Rep1 [2, 14]: 84.12% | Pf_72h_%Growth_Rep2 [2, 15]: 86.68% | Tg_72h_%Growth_Rep1 [3, 16]: 106.88% | Tg_72h_%Growth_Rep2 [3, 17]: 106.90%

CS[C@H]1SC[C@H]2C(=O)N(C)[C@@H](C(C)C)C(=O)OC[C@@H](NC(=O)c3cnc4ccccc4n3)C(=O)N[C@@H](C)C(=O)N(C)[C@@H]1C(=O)N(C)[C@@H](C(C)C)C(=O)OC[C@@H](NC(=O)c1cnc3ccccc3n1)C(=O)N[C@@H](C)C(=O)N2C [Quinomycin A]
Pf_120h_%Growth_Rep1 [1, 28]: 15.40% | Pf_120h_%Growth_Rep2 [1, 29]: -11.60% | Pf_72h_%Growth_Rep1 [2, 30]: 8.36% | Pf_72h_%Growth_Rep2 [2, 31]: -0.61% | Tg_72h_%Growth_Rep1 [3, 32]: -0.75% | Tg_72h_%Growth_Rep2 [3, 33]: -0.09%
